According to patent publication US9498483B2, “2,3,5-trisubstituted thiophene compounds and uses thereof” (priority 2010, dated 2016):

What was measured:
[1] = test system: HCV replicon I389luc-ubi-neo/NS3-3′/ET in ET (Huh-lucubineo-ET) cells; experiment: Replicon assay (Biological Example 2), luciferase readout; format: cell-based; settings: Hepatitis C virus
Method in brief: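 EC50 values come from Hill fits of % inhibition of replicon-driven firefly luciferase, relative to no-compound wells. Compounds were serially diluted (10 points, 3-fold, 0.1 nM–50 μM final, 0.5% DMSO) onto ET replicon cells and read after 48 h.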

[2] = target: T1, HCV polymerase (Hepatitis C virus genotype 1b, UniProt Q9WMX2); experiment: Polymerase assay of Biological Example 1 (IC50 values of Table 3); format: biochemical; settings: IC50 values of Table 3, polymerase assay of Biological Example 1; read-out: NS5B-enzyme3
T1 construct: (His)6 (C); made in house; host or cells: XL-1 cells (E. coli, by own knowledge)

[3] = ET cells, luciferase activity 48 hours after compound

SMILES	IC50 [1, 3]	IC50 [2]	IC50 ([1]; between 100 nM and 5.0 uM)
C[C@@H]1CN(c2ccc(S(=O)(=O)N3CC(=O)N(c4cc(-c5ccccc5)sc4C(=O)O)[C@H](C4CCCCC4)C3)cn2)C[C@H](C)O1 [Compound 167, 3-{(R)-2-Cyclohexyl-4-[6-((2R,6S)-2,6-dimethyl-morpholin-4-yl)-pyridine-3-sulfonyl]-6-oxo-piperazin-1-yl}-5-phenyl-thiophene-2-carboxylic acid]	≤ 0.1 µM	0.0035 µM	
COCCN(CCOC)c1ccc(S(=O)(=O)N2CC(=O)N(c3cc(-c4ccccc4)sc3C(=O)O)C(C3CCCCC3)C2)cn1 (stereo not shown) [Compound 80, 3-(4-{6-[Bis-(2-methoxy-ethyl)-amino]-pyridine-3-sulfonyl}-2-cyclohexyl-6-oxo-piperazin-1-yl)-5-phenyl-thiophene-2-carboxylic acid]	≤ 0.1 µM	0.006 µM	
O=C(O)c1sc(-c2ccccc2)cc1N1C(=O)CN(S(=O)(=O)c2ccc(N3CCC3)nc2)CC1C1CCCCC1 (stereo not shown) [Compound 74, 3-[4-(6-Azetidin-1-yl-pyridine-3-sulfonyl)-2-cyclohexyl-6-oxo-piperazin-1-yl]-5-phenyl-thiophene-2-carboxylic acid]	≤ 0.1 µM	0.012 µM	
CC(C)(C)OC(=O)N[C@H]1CCN(c2ccc(S(=O)(=O)N3CC(=O)N(c4cc(-c5ccccc5)sc4C(=O)O)[C@H](C4CCCCC4)C3)cn2)C1 [Compound 165, 3-{(R)-4-[6-((S)-3-tert-Butoxycarbonylamino-pyrrolidin-1-yl)-pyridine-3-sulfonyl]-2-cyclohexyl-6-oxo-piperazin-1-yl}-5-phenyl-thiophene-2-carboxylic acid]	≤ 0.1 µM	0.002 µM	
O=C(O)c1sc(-c2ccccc2)cc1N1C(=O)CN(S(=O)(=O)c2ccc(NCCO)nc2)CC1C1CCCCC1 (stereo not shown) [Compound 86, 3-{2-Cyclohexyl-4-[6-(2-hydroxy-ethylamino)-pyridine-3-sulfonyl]-6-oxo-piperazin-1-yl}-5-phenyl-thiophene-2-carboxylic acid]	≤ 0.1 µM	0.006 µM	
Cc1occc1-c1ccc(S(=O)(=O)N2CC(=O)N(c3cc(-c4ccccc4)sc3C(=O)O)[C@H](C3CCCCC3)C2)cn1 [Compound 211, 3-{(R)-2-Cyclohexyl-4-[6-(2-methyl-furan-3-yl)-pyridine-3-sulfonyl]-6-oxo-piperazin-1-yl}-5-phenyl-thiophene-2-carboxylic acid]		0.002 µM	0.1 to 5 µM
O=C(O)c1sc(-c2ccccc2)cc1N1C(=O)CN(S(=O)(=O)c2ccc(N3CCOCC3)nc2)C[C@H]1C1CCCCC1 [Compound 184, 3-[(R)-2-Cyclohexyl-4-(6-morpholin-4-yl-pyridine-3-sulfonyl)-6-oxo-piperazin-1-yl]-5-phenyl-thiophene-2-carboxylic acid]	≤ 0.1 µM	0.0017 µM	
Cc1nn(C)cc1S(=O)(=O)N1CC(=O)N(c2cc(C#CC(C)(C)C)sc2C(=O)O)[C@H](C2CCCCC2)C1 [Compound 260, 3-[(R)-2-Cyclohexyl-4-(1,3-dimethyl-1H-pyrazole-4-sulfonyl)-6-oxo-piperazin-1-yl]-5-(3,3-dimethyl-but-1-ynyl)-thiophene-2-carboxylic acid]		0.008 µM	0.1 to 5 µM
COc1ccc(S(=O)(=O)N2CC(=O)N(c3cc(-c4ccccc4)sc3C(=O)O)C(C3CCCCC3)C2)cc1OC (stereo not shown) [Compound 102, 3-[2-Cyclohexyl-4-(3,4-dimethoxy-benzenesulfonyl)-6-oxo-piperazin-1-yl]-5-phenyl-thiophene-2-carboxylic acid]		0.0045 µM	0.1 to 5 µM
C[C@@H]1CN(c2ccc(S(=O)(=O)N3CC(=O)N(c4cc(-c5ccccc5)sc4C(=O)O)[C@H](C4CCCCC4)C3)cn2)C[C@H](C)N1 [Compound 150, 3-{(R)-2-Cyclohexyl-4-[6-((3R,5S)-3,5-dimethyl-piperazin-1-yl)-pyridine-3-sulfonyl]-6-oxo-piperazin-1-yl}-5-phenyl-thiophene-2-carboxylic acid]	≤ 0.1 µM	0.004 µM	
CCOc1ccc(-c2cc(N3C(=O)CCCC3C3CCCCC3)c(C(=O)O)s2)cc1 (stereo not shown) [Compound 116, 3-(2-Cyclohexyl-6-oxo-piperidin-1-yl)-5-(4-ethoxy-phenyl)-thiophene-2-carboxylic acid]		0.064 µM	0.1 to 5 µM
O=C(O)c1sc(-c2ccccc2)cc1N1C(=O)CN(S(=O)(=O)c2ccc(N3CCNCC3)nc2)C[C@@H]1C1CCCCC1 [Compound 132, 3-[(S)-2-Cyclohexyl-6-oxo-4-(6-piperazin-1-yl-pyridine-3-sulfonyl)-piperazin-1-yl]-5-phenyl-thiophene-2-carboxylic acid]	≥ 5 µM	0.108 µM	
C[C@@H]1CCCN1c1ccc(S(=O)(=O)N2CC(=O)N(c3cc(-c4ccccc4)sc3C(=O)O)[C@H](C3CCCCC3)C2)cn1 [Compound 130, 3-{(R)-2-Cyclohexyl-4-[6-((R)-2-methyl-pyrrolidin-1-yl)-pyridine-3-sulfonyl]-6-oxo-piperazin-1-yl}-5-phenyl-thiophene-2-carboxylic acid]	≤ 0.1 µM	0.001 µM	
Cc1ccc(S(=O)(=O)N2CC(=O)N(c3cc(-c4ccccc4)sc3C(=O)O)[C@H](C3CCCCC3)C2)cc1 [Compound 18, 3-[(R)-2-Cyclohexyl-6-oxo-4-(toluene-4-sulfonyl)-piperazin-1-yl]-5-phenyl-thiophene-2-carboxylic acid]		0.002 µM	0.1 to 5 µM
CN(C)[C@@H]1CCN(c2ccc(S(=O)(=O)N3CC(=O)N(c4cc(-c5ccccc5)sc4C(=O)O)[C@H](C4CCCCC4)C3)cn2)C1 [Compound 163, 3-{(R)-2-Cyclohexyl-4-[6-((R)-3-dimethylamino-pyrrolidin-1-yl)-pyridine-3-sulfonyl]-6-oxo-piperazin-1-yl}-5-phenyl-thiophene-2-carboxylic acid]	≤ 0.1 µM	0.001 µM	
CC(C)(C)C#Cc1cc(N2C(=O)C(CCO)(CCO)OC[C@H]2C2CCCCC2)c(C(=O)O)s1 [Compound 333, 3-[(R)-5-Cyclohexyl-2,2-bis-(2-hydroxy-ethyl)-3-oxo-morpholin-4-yl]-5-(3,3-dimethyl-but-1-ynyl)-thiophene-2-carboxylic acid]		0.01 µM	0.1 to 5 µM
CC(C)(C)C#Cc1cc(N2C(=O)CCC[C@@H]2C2CCCCC2)c(C(=O)O)s1 [Compound 34, 3-((R)-2-Cyclohexyl-6-oxo-piperidin-1-yl)-5-(3,3-dimethyl-but-1-ynyl)-thiophene-2-carboxylic acid]	≥ 5 µM	1.05 µM	
CC(C)(C)C#Cc1cc(N2C(=O)[C@H](CC(O)CO)OC[C@H]2C2CCCCC2)c(C(=O)O)s1 (stereo partly drawn) [Compound 331, 3-[(2S,5R)-5-Cyclohexyl-2-(2,3 dihydroxy-propyl)-3-oxo-morpholin-4-yl]-5-(3,3-dimethyl-but-1-ynyl)-thiophene-2 carboxylic acid]		0.008 µM	0.1 to 5 µM
N#Cc1cccc(S(=O)(=O)N2CC(=O)N(c3cc(-c4ccccc4)sc3C(=O)O)[C@H](C3CCCCC3)C2)c1 [Compound 97, 3-[(R)-4-(3-Cyano-benzenesulfonyl)-2-cyclohexyl-6-oxo-piperazin-1-yl]-5-phenyl-thiophene-2-carboxylic acid]		0.027 µM	0.1 to 5 µM
C[C@@H]1CN(c2ccc(S(=O)(=O)N3CC(=O)N(c4cc(-c5ccccc5)sc4C(=O)O)[C@H](C4CCCCC4)C3)cn2)CCN1C(=O)OC(C)(C)C [Compound 151, (R)-4-{5-[(R)-4-(2-Carboxy-5-phenyl-thiophen-3-yl)-3-cyclohexyl-5-oxo-piperazine-1-sulfonyl]-pyridin-2-yl}-2-methyl-piperazine-1-carboxylic acid tert-butyl ester]	≤ 0.1 µM	0.003 µM	
CC(C)(C)OC(=O)N[C@H]1CCCN(c2ccc(S(=O)(=O)N3CC(=O)N(c4cc(-c5ccccc5)sc4C(=O)O)[C@H](C4CCCCC4)C3)cn2)C1 [Compound 159, 3-[(R)-4-((S)-3-tert-Butoxycarbonyl-amino-3,4,5,6-tetrahydro-2H-[1,2′]bipyridinyl-5′-sulfonyl)-2-cyclohexyl-6-oxo-piperazin-1-yl]-5-phenyl-thiophene-2-carboxylic acid]		0.003 µM	0.1 to 5 µM
C[C@@H](O)CC[C@@]1(C)OC[C@@H](C2CCCCC2)N(c2cc(C#CC(C)(C)C)sc2C(=O)O)C1=O [Compound 321, 3-[(2R,5R)-5-Cyclohexyl-2-((R)-3-hydroxy-butyl)-2-methyl-3-oxo-morpholin-4-yl]-5-(3,3-dimethyl-but-1-ynyl)-thiophene-2-carboxylic acid]	≤ 0.1 µM	0.002 µM	
CC(C)S(=O)(=O)N1CC(=O)N(c2cc(C#CC(C)(C)C)sc2C(=O)O)[C@H](C2CCCCC2)C1 [Compound 221, 3-[(R)-2-Cyclohexyl-6-oxo-4-(propane-2-sulfonyl)-piperazin-1-yl]-5-(3,3-dimethyl-but-1-ynyl)-thiophene-2-carboxylic acid]		0.019 µM	0.1 to 5 µM
O=C(O)c1sc(-c2ccccc2)cc1N1C(=O)CN(S(=O)(=O)C2CCCC2)CC1C1CCCCC1 (stereo not shown) [Compound 42, 3-(2-Cyclohexyl-4-cyclopentanesulfonyl-6-oxo-piperazin-1-yl)-5-phenyl-thiophene-2-carboxylic acid]		0.148 µM	0.1 to 5 µM
Cc1ccc(-c2cc(N3C(=O)CN(S(=O)(=O)c4ccc(C(C)(C)C)nc4)C[C@H]3C3CCCCC3)c(C(=O)O)s2)cc1 [Compound 303, 3-[(R)-4-(6-tert-Butyl-pyridine-3-sulfonyl)-2-cyclohexyl-6-oxo-piperazin-1-yl]-5-p-tolyl-thiophene-2-carboxylic acid]	≤ 0.1 µM	0.004 µM	
CC(C)(C)C#Cc1cc(N2C(=O)CCCC2C2CCCCC2)c(C(=O)O)s1 (stereo not shown) [Compound 19, 3-(2-Cyclohexyl-6-oxo-piperidin-1-yl)-5-(3,3-dimethyl-but-1-ynyl)-thiophene-2-carboxylic acid]	≤ 0.1 µM	0.015 µM	
